Common to all, as to format: biochemical
The target of one assay is T1, MMP-1 (Homo sapiens, UniProt P03956).
T1 construct: A DNA fragment coding for catalytic regions in MMP-1 and MMP-9; histidine tag (N); made in house; host or cells: E. coli
T1 sequence (P03956 98-276 limits assumed): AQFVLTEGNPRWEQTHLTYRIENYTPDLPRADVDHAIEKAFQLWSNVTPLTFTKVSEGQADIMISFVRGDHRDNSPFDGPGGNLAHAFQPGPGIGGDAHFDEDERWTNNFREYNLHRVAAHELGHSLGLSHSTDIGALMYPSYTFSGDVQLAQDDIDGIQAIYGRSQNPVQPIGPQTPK
Briefly: Measurement of matrix metalloprotease (MMP) inhibitory activity, MMP-1, fluorescence quenching peptide substrate. To be noted: recombinant catalytic region of MMP-1; 37° C., 2 hours; Ki calculated from IC50 and Km; read-out: Ki MMP1. Here is the method:
(§1) A DNA fragment coding for catalytic regions in MMP-1 and MMP-9 was amplified by a PCR method with cDNA prepared from HT-1080 cells derived from human fibrosarcoma. In the same manner, a DNA fragment containing a pro-region and a catalyst region in MMP-3 was also prepared. The amplified DNA fragment was cloned into a commercially available expression vector which was designed to allow a histidine tag to add to the N-terminal, and then transformed into E. coli. The resulting transformants were cultured and a recombinant MMP was purified from a cell lysate using Ni-NTA regin (QIAGEN INC.). Recombinant MMP-3 was further activated by reacting with 1 mM para-aminophenyl mercury acetate at 37° C. for one hour.
(§2) The inhibitory activity was measured according to the method by Night et al. [FEBS Lett. 296, p 263 (1992)] or the method by Nagase et al. [J. Biol. Chem. 269, p 20952 (1994)] using a 96-half well black microplate. A solution prepared by dissolving each of test compounds (a) to (f) in dimethyl sulfoxide was diluted with a reaction buffer [50 mM Tris-HCl (pH 7.5) buffer containing 150 mM NaCl, 10 mM CaCl2, 0.05% Brij-35®] and then 25 μL of the dilute solution was added in a well.
(§3) After 25 μL of a MMP solution diluted with the reaction buffer was added thereto, the mixture was incubated at 37° C. for 10 minutes. Then, the reaction was initiated by adding 50 μL of a 10 μM fluorescence quenching peptide substrate prepared from the reaction buffer. As the fluorescence quenching peptide substrate, MCA-Pro-Leu-Gly-Leu-DPA-Ala-Arg-NH2 (MCA=7-methoxycoumarin-4-acetyl and DPA=N-3-(2,4-dinitrophenyl)-L-2,3-diaminopropionyl) were used for MMP-1 and MMP-9, and MCA-Arg-Pro-Lys-Pro-Val-Nva-Trp-Arg-Lys (DNP)-NH2 (DNP=2,4-dinitrophenyl) was used for MMP-3. A fluorescence intensity (excitation 320/fluoresecence 405 nm) immediately after the initiation of the reaction and a fluorescence intensity after the reaction at 37° C. (for 2 hours for MMP-1 and MMP-3, for 3 hours for MMP-9) were measured and a difference in fluorescence intensity was taken as an indicator of enzymatic activity. The inhibition rate (%) at each concentration of an inhibitor was calculated and an IC50 value was determined from the dose-response curve. From this IC50 value and previously determined Km value for a […] substrate, a Ki value was calculated using GraphPad Prism software (GraphPad Software, Inc.).

The target of the next assay is T2, MMP-3 (Homo sapiens, UniProt P08254).
T2 construct: a DNA fragment containing a pro-region and a catalyst region in MMP-3 was also prepared; histidine tag (N); made in house; host or cells: E. coli
T2 sequence (P08254 100-272 limits assumed): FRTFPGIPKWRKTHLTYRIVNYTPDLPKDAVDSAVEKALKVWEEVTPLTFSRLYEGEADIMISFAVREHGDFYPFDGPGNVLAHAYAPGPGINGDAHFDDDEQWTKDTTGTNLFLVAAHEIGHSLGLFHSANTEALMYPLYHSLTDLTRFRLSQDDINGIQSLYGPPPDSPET
The assay can be described thus: Measurement of matrix metalloprotease (MMP) inhibitory activity, MMP-3, fluorescence quenching peptide substrate. The conditions noted are these: recombinant MMP-3 activated with para-aminophenyl mercury acetate; 37° C., 2 hours; Ki calculated from IC50 and Km; read-out: Ki MMP3. The protocol:
as §1, §2, §3

In another assay the target is T3, MMP-9 (Homo sapiens, UniProt P14780).
T3 construct: A DNA fragment coding for catalytic regions in MMP-1 and MMP-9; histidine tag (N); made in house; host or cells: E. coli
T3 sequence (P14780 107-444 limits assumed): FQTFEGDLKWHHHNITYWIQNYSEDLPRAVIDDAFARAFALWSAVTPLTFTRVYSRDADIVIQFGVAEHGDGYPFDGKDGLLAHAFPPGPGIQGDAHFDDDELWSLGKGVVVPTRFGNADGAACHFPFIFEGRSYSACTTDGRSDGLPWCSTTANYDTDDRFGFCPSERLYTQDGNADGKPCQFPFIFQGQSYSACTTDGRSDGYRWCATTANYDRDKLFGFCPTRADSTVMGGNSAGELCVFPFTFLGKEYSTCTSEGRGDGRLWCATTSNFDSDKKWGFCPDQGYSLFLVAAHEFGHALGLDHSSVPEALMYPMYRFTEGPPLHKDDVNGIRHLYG
Briefly: Measurement of matrix metalloprotease (MMP) inhibitory activity, MMP-9, fluorescence quenching peptide substrate. To be noted: read-out: Ki MMP9. Here is the method: as §1, §2, §3

The target of assay [1] is T4, TNF-α converting enzyme (TACE) (Homo sapiens, UniProt P78536).
T4 construct: a DNA fragment cording a signal region, a pro-region and a catalytic region was amplified by a PCR method; FLAG octapeptide (C); made in house; host or cells: insect cells (baculovirus, pFastBac)
T4 sequence (P78536 223-474 limits assumed): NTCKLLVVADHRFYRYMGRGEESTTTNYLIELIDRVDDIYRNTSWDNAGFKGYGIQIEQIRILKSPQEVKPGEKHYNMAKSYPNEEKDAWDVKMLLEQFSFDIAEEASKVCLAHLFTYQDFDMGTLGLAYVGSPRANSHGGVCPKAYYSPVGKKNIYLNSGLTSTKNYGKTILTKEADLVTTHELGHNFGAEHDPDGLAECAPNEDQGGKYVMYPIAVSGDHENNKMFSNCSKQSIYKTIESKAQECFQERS
Briefly: Measurement of inhibitory activity against TNF-α converting enzyme (TACE), fluorescence quenching peptide substrate. Here is the method:
A full length cDNA for TACE was cloned from THP-1 cells derived from human acute monocytic leukemia and a DNA fragment cording a signal region, a pro-region and a catalytic region was amplified by a PCR method. An appropriate restriction enzyme recognizing sequence was added to both terminals of the amplified fragment and also a sequence of an antigenic octapeptide (FLAG™) tag was inserted in the 3′ terminal. A recombinant bacmid was prepared from the resulting amplified fragment using a pFastBac system (Life Technologies) and then transfected into insect cells to generate a recombinant baculovirus. Insect cells were infected with the recombinant baculovirus and the recombinant TACE released into culture supernatant was purified by an affinity gel column.
The inhibitory activity was measured according to the method by Van Dyke et al. [Bioorg. […] A solution prepared by dissolving each of test compounds (a) to (f) in dimethylsulfoxide was diluted with a reaction buffer [20 mM tris-HCl buffer (pH 7.5) containing 0.05% Brij-35®] and then 40 μL of the dilute solution was added in a well. […] The inhibition rate (%) at each concentration of an inhibitor was calculated and an IC50 value was determined from the dose-response curve. From this IC50 value and previously determined Km value for a TACE substrate, a Ki value was calculated using data processing software (GraphPad Prism™, GraphPad Software, Inc.).

The Ki is a measure of affinity in units of concentration, obtained from inhibition or displacement. In the case of `CC#CCOc1ccc(S(=O)(=O)N2C[C@H](O)[C@H](O)[C@@H](OC)[C@@H]2C(=O)NO)cc1` [Compound (a), (2R,3S,4S,5S)-1-(4′-but-2′-ynyloxybenzenesulfonyl)-4,5-dihydroxy-3-methoxypiperidine-2-carboxylic acid hydroxamide], the inhibition constant Ki on MMP-1 was greater than 850 nM; at MMP-3, greater than 650 nM; at MMP-9 it was greater than 790 nM; in assay [1], 4.3 nM.

Turning to `CC#CCOc1ccc(S(=O)(=O)N2C[C@H](O)[C@H](O)[C@@H](O)[C@@H]2C(=O)NO)cc1` [Compound (d), (2R,3S,4S,5S)-1-(4′-but-2′-ynyloxybenzenesulfonyl)-3,4,5-trihydroxy-piperidine-2-carboxylic acid hydroxamide], the Ki is greater than 850 nM on MMP-1, 490 nM at MMP-3 and greater than 790 nM at MMP-9.

On to `CC#CCOc1ccc(S(=O)(=O)N2C[C@H](O)[C@H](O)[C@@H](OCC)[C@@H]2C(=O)NO)cc1` [Compound (e), (2R,3S,4S,5S)-1-(4′-but-2′-ynyloxybenzenesulfonyl)-4,5-dihydroxy-3-ethoxypiperidine-2-carboxylic acid hydroxamide], for which the Ki at MMP-1 is greater than 850 nM; at MMP-3, greater than 650 nM; on MMP-9, greater than 790 nM; in assay [1], 8.5 nM.

As for `CC#CCOc1ccc(S(=O)(=O)N2C[C@H](OC)[C@H](O)[C@@H](O)[C@@H]2C(=O)NO)cc1` [Compound (c), (2R,3S,4R,5S)-1-(4′-but-2′-ynyloxybenzenesulfonyl)-3,4-dihydroxy-5-methoxypiperidine-2-carboxylic acid hydroxamide], the Ki was greater than 850 nM on MMP-1, greater than 650 nM on MMP-3, greater than 790 nM at MMP-9 and 2.4 nM in assay [1].

With `CC#CCOc1ccc(S(=O)(=O)N2C[C@H](O)[C@H](O)[C@@H](OCc3ccccc3)[C@@H]2C(=O)NO)cc1` [Compound (b), (2R,3S,4S,5S)-3-benzyloxy-1-(4′-but-2′-ynyloxybenzenesulfonyl)-4,5-dihydroxypiperidine-2-carboxylic acid hydroxamide], the Ki on MMP-1 was greater than 850 nM; at MMP-3, greater than 650 nM; on MMP-9, greater than 790 nM; in assay [1] it was 9.4 nM.

Regarding `CO[C@@H]1[C@@H](O)[C@@H](O)CN(S(=O)(=O)c2ccc(OCC#CCO)cc2)[C@H]1C(=O)NO` [Compound (f), (2R,3S,4S,5S)-4,5-dihydroxy-1-[4′-(4″-hydroxy-but-2′-ynyloxy)benzenesulfonyl]-3-methoxy-piperidine-2-carboxylic acid hydroxamide], the Ki is greater than 850 nM on MMP-1, greater than 650 nM on MMP-3, greater than 790 nM on MMP-9 and 18 nM in assay [1].

The record behind these values is US20060058350A1, “Alkynyl-substituted azasugar derivative and drug containing the same as the active ingredient” (Carna Biosciences, Inc., priority 2002, published 2006).
